Counter-ions that a name gives are not always drawn. Some results are limits rather than exact numbers.

For this experiment, the target named is HCV NS5B polymerase (Hepatitis C virus genotype 1b, UniProt P26663). Description: biochemical. To be noted: HCV polymerase inhibition, 50 nM enzyme, 2 h at room temperature, FlashPlate [α-33P]GTP incorporation. On the procedure: NS5B Polymerase Inhibition Assay (IC50)
Chain of HCV NS5B polymerase (P26663 2420-3010): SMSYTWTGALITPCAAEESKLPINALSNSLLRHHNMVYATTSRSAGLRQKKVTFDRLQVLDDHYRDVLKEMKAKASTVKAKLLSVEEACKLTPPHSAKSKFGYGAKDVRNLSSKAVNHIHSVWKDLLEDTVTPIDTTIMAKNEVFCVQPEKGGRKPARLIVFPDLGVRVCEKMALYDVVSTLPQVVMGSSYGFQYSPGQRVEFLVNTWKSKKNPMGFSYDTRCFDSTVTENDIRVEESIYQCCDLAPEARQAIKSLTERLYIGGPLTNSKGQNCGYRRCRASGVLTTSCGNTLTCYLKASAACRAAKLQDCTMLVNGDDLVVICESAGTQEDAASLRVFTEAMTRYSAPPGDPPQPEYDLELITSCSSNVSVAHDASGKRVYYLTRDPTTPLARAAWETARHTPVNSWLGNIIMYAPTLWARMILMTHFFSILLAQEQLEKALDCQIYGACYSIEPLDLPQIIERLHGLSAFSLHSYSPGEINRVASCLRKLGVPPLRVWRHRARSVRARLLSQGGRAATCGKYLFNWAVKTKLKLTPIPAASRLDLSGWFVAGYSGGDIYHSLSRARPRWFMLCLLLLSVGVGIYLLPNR
Compounds were tested for HCV polymerase inhibition. Assays were performed in a 96-well streptavidin-coated FlashPlate using 50 nM enzyme, 0.5 μCi of [α-^33P]GTP, 0.6 μM GTP, and 50 nM 5′biotinylated oligo (rG13)/poly rC in 20 mM Tris-HCl, pH 7.5, 5 mM MgCl2, 20 mM NaCl, 5 mM dithiothreitol, and 0.1 g/L BSA. The reaction was stopped by aspiration after 2 h at room temperature and the plate was washed several times. After washing, incorporated radioactivity was counted using a Microbeta scintillation counter.
With `CC(C)CCn1nc(-c2cncs2)c(O)c(C2=Nc3ccc(NS(=O)(=O)C(C)C)cc3S(=O)(=O)N2)c1=O` [Propane-2-sulfonic acid {3-[5-hydroxy-2-(3-methyl-butyl)-3-oxo-6-thiazol-5-yl-2,3-dihydro-pyridazin-4-yl]-1,1-dioxo-1,2-dihydro-1λ^6-benzo[1,2,4]thiadiazin-7-yl}-amide], the IC50 is < 100 nM.
Then `CC(C)CCn1nc(C(C)(C)C)c(O)c(C2=Nc3ccc(NS(=O)(=O)C4CC4)cc3S(=O)(=O)N2)c1=O` [Cyclopropanesulfonic acid {3-[6-tert-butyl-5-hydroxy-2-(3-methyl-butyl)-3-oxo-2,3-dihydro-pyridazin-4-yl]-1,1-dioxo-1,2-dihydro-1λ^6-benzo[1,2,4]thiadiazin-7-yl}-amide], with 1000 to 10000 nM; and `CC(C)CCn1nc(CC2CCC2)c(O)c(C2=NS(=O)(=O)c3cc(NS(C)(=O)=O)ccc3N2)c1=O` [N-{3-[6-Cyclobutylmethyl-5-hydroxy-2-(3-methyl-butyl)-3-oxo-2,3-dihydro-pyridazin-4-yl]-1,1-dioxo-1,2-dihydro-1λ^6-bnezo[1,2,4]thiadiazin-7-yl}-methanesulfonamide], with 100 to 1000 nM; and `CS(=O)(=O)Nc1ccc2c(c1)S(=O)(=O)N=C(c1c(O)c(-c3cccs3)nn(Cc3ccccc3)c1=O)N2` [N-[3-(2-Benzyl-5-hydroxy-3-oxo-6-thiophen-2-yl-2,3-dihydro-pyridazin-4-yl)-1,1-dioxo-1,2-dihydro-1λ^6-benzo[1,2,4]thiadiazin-7-yl]-methanesulfonamide], with < 100 nM.
With `CS(=O)(=O)Nc1ccc2c(c1)S(=O)(=O)N=C(c1c(O)c(-c3cccs3)nn(Cc3ccc(F)c(Cl)c3)c1=O)N2` [N-{3-[2-(3-Chloro-4-fluoro-benzyl)-5-hydroxy-3-oxo-6-thiophen-2-yl-2,3-dihydro-pyridazin-4-yl]-1,1-dioxo-1,2-dihydro-1λ^6-benzo[1,2,4]thiadiazin-7-yl}-methanesulfonamide], the half-inhibitory concentration (IC50) is < 100 nM.
For `CC(C)CCn1nc(-c2cccs2)c(O)c(C2=NS(=O)(=O)c3cc(N(C)S(C)(=O)=O)ccc3N2C)c1=O` [N-{3-[5-Hydroxy-2-(3-methyl-butyl)-3-oxo-6-thiophen-2-yl-2,3-dihydro-pyridazin-4-yl]-4-methyl-1,1-dioxo-1,4-dihydro-1λ^6-benzo[1,2,4]thiadiazin-7-yl}-N-methyl-methanesulfonamide], the 50% inhibitory concentration (IC50) lay in the range of 1000 to 10000 nM.
Then `CC(C)CCn1nc(-c2ccccc2)c(O)c(C2=Nc3ccc(N(C)S(C)(=O)=O)cc3S(=O)(=O)N2)c1=O` [N-{3-[5-Hydroxy-2-(3-methyl-butyl)-3-oxo-6-phenyl-2,3-dihydro-pyridazin-4-yl]-1,1-dioxo-1,2-dihydro-1λ^6-benzo[1,2,4]thiadiazin-7-yl}-N-methyl-methanesulfonamide], with 1000 to 10000 nM.
In the case of `COC(C)(C)CCn1nc(-c2cccs2)c(O)c(C2=NS(=O)(=O)c3cc(NS(C)(=O)=O)ccc3N2)c1=O` [N-{3-[5-Hydroxy-2-(3-methoxy-3-methyl-butyl)-3-oxo-6-thiophen-2-yl-2,3-dihydro-pyridazin-4-yl]-1,1-dioxo-1,2-dihydro-1λ^6-benzo[1,2,4]thiadiazin-7-yl}-methanesulfonamide], the IC50 was < 100 nM.
Then `CCCS(=O)(=O)Nc1ccc2c(c1)S(=O)(=O)NC(c1c(O)c(-c3cncs3)nn(CCC(C)C)c1=O)=N2` [Propane-1-sulfonic acid {3-[5-hydroxy-2-(3-methyl-butyl)-3-oxo-6-thiazol-5-yl-2,3-dihydro-pyridazin-4-yl]-1,1-dioxo-1,2-dihydro-1λ^6-benzo[1,2,4]thiadiazin-7-yl}-amide], with < 100 nM; and `CC(C)CCn1nc(-c2cncs2)c(O)c(C2=Nc3ccc(NS(=O)(=O)C(C)(C)C)cc3S(=O)(=O)N2)c1=O` [2-Methyl-propane-2-sulfonic acid{3-[5-hydroxy-2-(3-methyl-butyl)-3-oxo-6-thiazol-5-yl-2,3-dihydro-pyridazin-4-yl]-1,1-dioxo-1,2-dihydro-1λ^6-benzo[1,2,4]thiadiazin-7-yl}-amide], with < 100 nM; and `CC(C)CCn1nc(-c2cccs2)c(O)c(C2=Nc3ccc(C4CCCS4(=O)=O)cc3S(=O)(=O)N2)c1=O` (stereo not drawn) [4-[7-(1,1-Dioxo-tetrahydro-1l6-thiophen-2-yl)-1,1-dioxo-1,2-dihydro-1λ^6-benzo[1,2,4]thiadiazin-3-yl]-5-hydroxy-2-(3-methyl-butyl)-6-thiophen-2-yl-2H-pyridazin-3-one], with 100 to 1000 nM.
Then `O=c1c(C2=Nc3ccc(NS(=O)(=O)C4CC4)cc3S(=O)(=O)N2)c(O)c(-c2cccs2)nn1CCC1CC1` [Cyclopropanesulfonic acid {3-[2-(2-cyclopropyl-ethyl)-5-hydroxy-3-oxo-6-thiophen-2-yl-2,3-dihydro-pyridazin-4-yl]-1,1-dioxo-1,2-dihydro-1λ^6-benzo[1,2,4]thiadiazin-7-yl}-amide], with < 100 nM; and `CS(=O)(=O)Nc1ccc2c(c1)S(=O)(=O)NC(c1c(O)c(-c3cncs3)nn(CC3CCC3)c1=O)=N2` [N-[3-(2-Cyclobutylmethyl-5-hydroxy-3-oxo-6-thiazol-5-yl-2,3-dihydro-pyridazin-4-yl)-1,1-dioxo-1,2-dihydro-1λ^6-benzo[1,2,4]thiadiazin-7-yl]-methanesulfonamide], with < 100 nM.
Regarding `CS(=O)(=O)Nc1ccc2c(c1)S(=O)(=O)NC(c1c(O)c(-c3cncs3)nn(CCC3CC3)c1=O)=N2` [N-{3-[2-(2-Cyclopropyl-ethyl)-5-hydroxy-3-oxo-6-thiazol-5-yl-2,3-dihydro-pyridazin-4-yl]-1,1-dioxo-1,2-dihydro-1λ^6-benzo[1,2,4]thiadiazin-7-yl}-methanesulfonamide], the half-maximal inhibitory concentration (IC50) is < 100 nM.
Regarding `CC(C)CCn1nc(-c2cccs2)c(O)c(C2=NS(=O)(=O)c3cc(N4CCCS4(=O)=O)ccc3N2)c1=O` [4-[7-(1,1-Dioxo-1l6-isothiazolidin-2-yl)-1,1-dioxo-1,2-dihydro-1λ^6-benzo[1,2,4]thiadiazin-3-yl]-5-hydroxy-2-(3-methyl-butyl)-6-thiophen-2-yl-2H-pyridazin-3-one], the IC50 was in the range of 100 to 1000 nM.
Then `CS(=O)(=O)Nc1ccc2c(c1)S(=O)(=O)NC(c1c(O)c(-c3cccs3)nn(Cc3ccccn3)c1=O)=N2` [N-[3-(5-Hydroxy-3-oxo-2-pyridin-2-ylmethyl-6-thiophen-2-yl-2,3-dihydro-pyridazin-4-yl)-1,1-dioxo-1,2-dihydro-1λ^6-benzo[1,2,4]thiadiazin-7-yl]-methanesulfonamide], with < 100 nM; and `CCCC(C)n1nc(-c2cccs2)c(O)c(C2=NS(=O)(=O)c3cc(NS(C)(=O)=O)ccc3N2)c1=O` (stereo not drawn) [N-{3-[5-Hydroxy-2-(1-methyl-butyl)-3-oxo-6-thiophen-2-yl-2,3-dihydro-pyridazin-4-yl]-1,1-dioxo-1,2-dihydro-1λ^6-benzo[1,2,4]thiadiazin-7-yl}-methanesulfonamide], with 100 to 1000 nM; and `CC(C)=Cc1nn(CCC2CC2)c(=O)c(C2=Nc3ccc(NS(C)(=O)=O)cc3S(=O)(=O)N2)c1O` [N-{3-[2-(2-Cyclopropyl-ethyl)-5-hydroxy-6-(2-methyl-propenyl)-3-oxo-2,3-dihydro-pyridazin-4-yl]-1,1-dioxo-1,2-dihydro-1λ^6-benzo[1,2,4]thiadiazin-7-yl}-methanesulfonamide], with < 100 nM.
Then `CC(C)CCn1nc(-c2cccs2)c(O)c(C2=Nc3ccc(N(COCc4ccccc4)S(C)(=O)=O)cc3S(=O)(=O)N2)c1=O` [N-Benzyloxymethyl-N-{3-[5-hydroxy-2-(3-methyl-butyl)-3-oxo-6-thiophen-2-yl-2,3-dihydro-pyridazin-4-yl]-1,1-dioxo-1,2-dihydro-1λ^6-benzo[1,2,4]thiadiazin-7-yl}-methanesulfonamide], with 1000 to 10000 nM.
Then `CS(=O)(=O)Nc1ccc2c(c1)S(=O)(=O)NC(c1c(O)c(-c3ccsc3)nn(CCC3CC3)c1=O)=N2` [N-{3-[2-(2-Cyclopropyl-ethyl)-5-hydroxy-3-oxo-6-thiophen-3-yl-2,3-dihydro-pyridazin-4-yl]-1,1-dioxo-1,2-dihydro-1λ^6-benzo[1,2,4]thiadiazin-7-yl}-methanesulfonamide], with < 100 nM.
For the molecule `CS(=O)(=O)Nc1ccc2c(c1)S(=O)(=O)N=C(c1c(O)c(-c3cccs3)nn(Cc3ccc(F)cc3)c1=O)N2` [N-{3-[2-(4-Fluoro-benzyl)-5-hydroxy-3-oxo-6-thiophen-2-yl-2,3-dihydro-pyridazin-4-yl]-1,1-dioxo-1,2-dihydro-1λ^6-benzo[1,2,4]thiadiazin-7-yl}-methanesulfonamide], the IC50 is < 100 nM.
Consider `CCN(CC)CCS(=O)(=O)Nc1ccc2c(c1)S(=O)(=O)NC(c1c(O)c(-c3cccs3)nn(CCC(C)(C)C)c1=O)=N2` [2-Diethylamino-ethanesulfonicacid {3-[2-(3,3-dimethyl-butyl)-5-hydroxy-3-oxo-6-thiophen-2-yl-2,3-dihydro-pyridazin-4-yl]-1,1-dioxo-1,4-dihydro-1λ^6-benzo[1,2,4]thiadiazin-7-yl}-amide], for which the IC50 fell in the range of 100 to 1000 nM.
Molecule `C=CS(=O)(=O)N(C)c1ccc2c(c1)S(=O)(=O)NC(c1c(O)c(-c3cccs3)nn(CCC(C)(C)C)c1=O)=N2` [Ethenesulfonic acid {3-[2-(3,3-dimethyl-butyl)-5-hydroxy-3-oxo-6-thiophen-2-yl-2,3-dihydro-pyridazin-4-yl]-1,1-dioxo-1,2-dihydro-1λ^6-benzo[1,2,4]thiadiazin-7-yl}-methyl-amide] registered an IC50 of 1000 to 10000 nM.
Then `CC(C)(C)CCn1nc(-c2cccs2)c(O)c(C2=Nc3ccc(NS(C)(=O)=O)cc3S(=O)(=O)N2)c1=O` [N-{3-[2-(3,3-dimethyl-butyl)-5-hydroxy-3-oxo-6-thiophen-2-yl-2,3-dihydro-pyridazin-4-yl]-1,1-dioxo-1,2-dihydro-1λ^6-benzo[1,2,4]thiadiazin-7-yl}-methanesulfonamide, sodium salt], with < 100 nM.

(Values after patent US20080275032A1, “Pyridazinone compounds” (priority 2006, published 2008).)
